In patent US20100216734A1, “MODULATION OF NEUROGENESIS BY NOOTROPIC AGENTS” (BrainCells, Inc., priority 2006, published 2010):
Several values for one entry are separate records, joined by “and”; a condition that tells them apart may be missing. Identical values can stand only once. Entries after “also recorded” stand apart in the source; their conditions may differ. Counter-ions that a name gives are not always drawn. Like-named read-outs stand apart in the source and are kept apart here. Peptide text beside a SMILES is read from it. * marks the point of attachment. PhAc = O=C(Cc1ccccc1)*

Assays:
[1] = tested on: human neural stem cells (hNSCs); assay: Neuronal differentiation of human neural stem cells (TUJ-1 staining); format: cell-based; details: for effect on neuronal differentiation, agent alone (in words): dose response of agent alone; for maximal percent neuronal differentiation in the presence of 1.0 μM NBQX: with 1.0 μM NBQX
[2] = tested on: KA, AMPA, and NMDA iGlu receptors; details: cited from earlier work
male F344 rats = assay: Novel object recognition in rat; format: in vivo; details: 0.5 mg/kg/day i.p. once daily for 7 days, p<0.05
Experimental: SGS-111 (0.5 mg/kg/day, i.p.) was administered to male F344 rats (n=12) once daily for 7 days. Animals were tested after 7 days of drug administration.
Shown in FIG. 9 is the mean number of visits to the novel object for vehicle and SGS-111 treated rats (±SEM). The y-axis represents mean visits. The x-axis indicates treatment. […] This difference is indicative of cognitive enhancement, an in vivo behavioral consequence of enhanced neurogenesis by SGS-111.

human mGlu3 receptors = human mGlu3 receptors (Homo sapiens, UniProt Q14832); details: in vitro; low nanomolar range; read-out: EC50 against human mGlu3 receptors; cited from earlier work
Chain of human mGlu3 receptors (Q14832 23-879): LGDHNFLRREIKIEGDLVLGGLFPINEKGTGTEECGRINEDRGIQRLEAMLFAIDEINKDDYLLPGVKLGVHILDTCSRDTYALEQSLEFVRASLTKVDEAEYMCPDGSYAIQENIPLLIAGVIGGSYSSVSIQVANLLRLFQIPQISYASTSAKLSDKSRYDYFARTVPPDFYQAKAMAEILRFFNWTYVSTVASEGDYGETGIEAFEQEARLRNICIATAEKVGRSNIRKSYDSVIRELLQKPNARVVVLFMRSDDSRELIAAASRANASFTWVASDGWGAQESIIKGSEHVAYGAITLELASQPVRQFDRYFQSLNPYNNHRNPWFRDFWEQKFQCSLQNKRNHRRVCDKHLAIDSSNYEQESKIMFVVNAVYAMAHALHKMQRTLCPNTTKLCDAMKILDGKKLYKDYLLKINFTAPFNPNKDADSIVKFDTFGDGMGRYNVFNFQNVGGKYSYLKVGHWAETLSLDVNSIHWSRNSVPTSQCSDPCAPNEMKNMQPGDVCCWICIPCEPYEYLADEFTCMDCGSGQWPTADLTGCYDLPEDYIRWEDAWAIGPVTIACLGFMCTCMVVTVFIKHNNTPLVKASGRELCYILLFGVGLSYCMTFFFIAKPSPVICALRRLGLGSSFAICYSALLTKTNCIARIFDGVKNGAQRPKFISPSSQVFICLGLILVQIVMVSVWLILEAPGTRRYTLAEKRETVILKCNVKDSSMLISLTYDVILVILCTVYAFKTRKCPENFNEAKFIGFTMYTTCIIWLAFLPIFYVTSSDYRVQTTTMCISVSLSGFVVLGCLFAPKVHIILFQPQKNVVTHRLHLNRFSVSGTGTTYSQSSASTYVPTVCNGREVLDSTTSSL

human mGlu2 receptors = human mGlu2 receptors (Homo sapiens, UniProt Q14416); details: in vitro; low nanomolar range; read-out: EC50 against human mGlu2 receptors; cited from earlier work
Chain of human mGlu2 receptors (Q14416 19-872): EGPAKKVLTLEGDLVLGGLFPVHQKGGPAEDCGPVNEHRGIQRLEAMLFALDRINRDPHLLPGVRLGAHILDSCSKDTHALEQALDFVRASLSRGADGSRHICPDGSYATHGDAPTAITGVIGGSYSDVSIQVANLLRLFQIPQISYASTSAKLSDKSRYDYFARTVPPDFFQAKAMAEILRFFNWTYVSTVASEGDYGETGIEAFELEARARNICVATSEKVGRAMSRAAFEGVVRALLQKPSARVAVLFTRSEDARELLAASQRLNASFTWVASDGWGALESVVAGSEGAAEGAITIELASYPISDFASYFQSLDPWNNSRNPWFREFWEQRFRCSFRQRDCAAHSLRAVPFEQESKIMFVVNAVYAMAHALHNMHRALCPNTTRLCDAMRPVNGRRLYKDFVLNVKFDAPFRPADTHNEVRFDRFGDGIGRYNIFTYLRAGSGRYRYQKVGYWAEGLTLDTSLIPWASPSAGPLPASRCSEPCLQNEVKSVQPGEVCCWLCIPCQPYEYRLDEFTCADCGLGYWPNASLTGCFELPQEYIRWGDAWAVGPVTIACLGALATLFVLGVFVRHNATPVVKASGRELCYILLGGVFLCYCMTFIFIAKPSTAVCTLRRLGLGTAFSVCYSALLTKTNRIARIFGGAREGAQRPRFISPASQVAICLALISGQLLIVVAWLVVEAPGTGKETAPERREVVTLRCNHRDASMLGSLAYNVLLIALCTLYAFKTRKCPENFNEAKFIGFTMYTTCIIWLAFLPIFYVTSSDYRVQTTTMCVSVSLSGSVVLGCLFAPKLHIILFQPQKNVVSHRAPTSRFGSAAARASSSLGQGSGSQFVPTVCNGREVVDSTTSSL

[3] = tested on: Group I or Group III receptors; details: at sub-mM concentrations; cited from earlier work
mGluR3 = mGluR3 (Homo sapiens, UniProt Q14832); details: read-out: IC50 against mGluR3; cited from earlier work
Chain of mGluR3 (Q14832 23-879): as the sequence (Q14832 23-879) above

mGluR2 = mGluR2 (Homo sapiens, UniProt Q14416); details: read-out: IC50 against mGluR2; cited from earlier work
Chain of mGluR2 (Q14416 19-872): as the sequence (Q14416 19-872) above

[4] = Homo sapiens, Neural stem cell, hNSCs, agent run independently, % of neuronal positive control, basal media subtracted, read-out: EC50 for neuronal differentiation, agent alone
[5] = hNSCs, agent run independently, % of neuronal positive control, basal media subtracted, read-out: EC50 for neuronal differentiation, agent alone
[6] = hNSCs, % of neuronal positive control
[7] = hNSCs, test agent dose response with constant 0.316 μM AMPA, read-out: EC50 for neuronal differentiation in combination with 0.316 μM AMPA

SMILES: NC(=O)c1ncn([C@@H]2O[C@H](CO)[C@@H](O)[C@H]2O)n1 [ribavirin]
- EC50 [1, 4]: 5.14 µM

SMILES: CC(=O)NCCCS(=O)(=O)O [acamprosate]
- EC50 [1, 4]: 16.4 µM
- EC50 [1, 5]: 9.68 µM

SMILES: NC(=O)CN1CCCC1=O [Piracetam]
- EC50 ([1]; Homo sapiens, Neural stem cell, hNSCs, with 1.0 μM AMPA antagonist NBQX, read-out: EC50 for neuronal differentiation in the presence of 1.0 μM NBQX): > 32 µM
- Emax ([1]; Homo sapiens, Neural stem cell, hNSCs, % of neuronal positive control, read-out: maximum percent neuronal differentiation (maximum efficacy), agent alone): 60%
- effect on neuronal differentiation, agent alone (in words) ([1]; hNSCs): promoted neuronal differentiation
- maximal percent neuronal differentiation in the presence of 1.0 μM NBQX [1, 6]: 38%

SMILES: NCC1CC(=O)N(Cc2ccccc2)C1 (stereo not shown) [nebracetam]
- Emax ([1]; Homo sapiens, Neural stem cell, hNSCs, % of neuronal positive control, constant 0.316 μM AMPA, read-out: maximum percent neuronal differentiation (maximum efficacy) in combination with 0.316 μM AMPA): 63%
- effect on neuronal differentiation in the presence of 0.316 μM AMPA (in words) ([1]; hNSCs, constant 0.316 μM AMPA): promoted dose dependent neuronal differentiation
- effect on neuronal differentiation, agent alone (in words) ([1]; hNSCs): failed to stimulate neuronal differentiation; also recorded: no effect on neuronal differentiation
- EC50 [1, 7]: 0.28 µM and 0.97 µM

SMILES: O=C1CC2(CCCC2)CC(=O)N1CCCCN1CCN(c2ncccn2)CC1 [buspirone]
- EC50 [1, 4]: 7.43 µM

SMILES: N[C@](CC1c2ccccc2Oc2ccccc21)(C(=O)O)[C@H]1C[C@@H]1C(=O)O [LY341495, (2S)-2-amino-2-(1S,2S-2-carboxycycloprop-1-yl)-3-(xanth-9-yl) propanoic acid]
- activity against KA, AMPA, and NMDA iGlu receptors (in words) [2]: substantially inactive

SMILES: CCOC(=O)CNC(=O)[C@@H]1CCCN1C(=O)Cc1ccccc1 [SGS-111] (PhAc-Pro-Gly-OEt)
- maximum percent neuronal differentiation (maximum efficacy), agent alone [1, 6]: ~40%
- maximum percent neuronal differentiation (maximum efficacy) in combination with 0.316 μM AMPA ([1]; hNSCs, % of neuronal positive control, constant 0.316 μM AMPA): approximately 60%
- EC50 [1, 5]: 7.2 µM
- effect on neuronal differentiation in the presence of 0.316 μM AMPA (in words) ([1]; hNSCs, constant 0.316 μM AMPA): a greater number of neurons at the highest concentration tested
- EC50 [1, 7]: 4.2 µM
- number of visits to / preference for the novel object versus familiar object (male F344 rats): statistically significant increase

SMILES: N[C@@]1(C(=O)O)CO[C@H]2[C@H](C(=O)O)[C@H]21 [LY379268, (−)-2-oxa-4-aminobicyclohexane-4,6-dicarboxylic acid]
- EC50 (human mGlu3 receptors): < 0.01 µM
- EC50 (human mGlu2 receptors): < 0.01 µM

SMILES: COc1ccc2[nH]cc(CCNC(C)=O)c2c1 [melatonin]
- EC50 [1, 4]: 320 µM

SMILES: NC(=O)COc1c(F)cc(SCCNS(=O)(=O)c2ccccc2)cc1F [PEPA]
- effect on neuronal differentiation in the presence of 0.316 μM AMPA (in words) ([1]; hNSCs, constant 0.316 μM AMPA): stimulation of neuronal differentiation that was dose-dependent upon PEPA
- effect on neuronal differentiation, agent alone (in words) ([1]; hNSCs): No effect on neuronal differentiation; also recorded: did not significantly enhance neuronal differentiation
- EC50 [1, 7]: 0.69 µM

SMILES: NC1(C(=O)O)CCc2cc(P(=O)(O)O)ccc21 (racemic) [APICA, (RS)-1-amino-5-phosphonoindan-1-carboxylic acid]
- activity against Group I or Group III receptors (in words) [3]: no appreciable activity
- IC50 (mGluR3): ~30 µM
- IC50 (mGluR2): ~30 µM

SMILES: CC(=O)N1CCN(NC(=O)c2ccc(F)cc2)CC1 [FK-960]
- EC50 [1, 5]: 7 µM
- effect on neuronal differentiation, agent alone (in words) ([1]; hNSCs): promoted neuronal differentiation

SMILES: Cc1onc(O)c1CC(N)C(=O)O (stereo not drawn) [AMPA, alpha-amino-3-hydroxy-5-methyl-4-isoxazolepropionic acid]
- EC50 ([1]; Homo sapiens, Neural stem cell, read-out: EC50 for neuronal differentiation in the presence of 1.0 μM NBQX, hNSCs, with 1.0 μM AMPA antagonist NBQX): > 32 µM
- Emax ([1]; Homo sapiens, Neural stem cell, read-out: maximum percent neuronal differentiation (maximum efficacy), agent alone): 50%
- effect of AMPA at 0.316 μM alone on neuronal differentiation (in words) ([1]; hNSCs, AMPA 0.316 μM): failed to stimulate neuronal differentiation; also recorded: no effects on neuronal differentiation
- effect on neuronal differentiation, agent alone (in words) ([1]; hNSCs): promoted neuronal differentiation
- maximal percent neuronal differentiation in the presence of 1.0 μM NBQX [1, 6]: 7%

SMILES: COC(=O)C(c1ccccc1)C1CCCCN1 (stereo not shown) [methylphenidate HCl, methylphenidate hydrochloride]
- EC50 ([1]; Homo sapiens, Neural stem cell, read-out: EC50 for neuronal differentiation, agent alone, hNSCs, agent run independently, % of neuronal positive control, basal media subtracted): 1.29 µM

SMILES: CCCCN(CC)c1nc(C)nc2c1c(C)c(C)n2-c1c(C)cc(C)cc1C [antalarmin]
- EC50 [1, 4]: 4.68 µM

SMILES: O=C1CC[C@H](C(=O)N2CCCCC2)N1 [fasoracetam]
- EC50 [1, 4]: 3.13 µM

SMILES: COC(=O)[C@@H]1[C@H]2C[C@H]3c4[nH]c5ccccc5c4CCN3C[C@@H]2CC[C@@H]1O [yohimbine]
- EC50 [1, 4]: 0.62 µM

SMILES: CCCc1nc2c(C)cc(-c3nc4ccccc4n3C)cc2n1Cc1ccc(-c2ccccc2C(=O)O)cc1 [telmisartan]
- EC50 [1, 4]: 2.75 µM
